From the supplement of paper PMC10307832

Key:
Assay in all cases: relative viability (nuclei count vs DMSO), 5 days (fraction); higher = more cells survive
[1] = compound: C#Cc1cccc(Nc2ncnc3cc(OC)c(OCCCCCCC(=O)NO)cc23)c1 [CUDC-101] + O=C(c1cc(Cc2n[nH]c(=O)c3ccccc23)ccc1F)N1CCN(C(=O)C2CC2)CC1 [Olaparib] (partner 8 µM)
How it was run: (§1)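 Medians of duplicate plates are given as relative viability. That measure is the nuclei count in treated wells divided by the count in vehicle wells. Counts were taken on 4× images of lung cancer cell lines in 1536-well plates, 5 days after pin-tool dosing the day after seeding with one drug alone or a fixed anchor-drug dose plus five library-drug doses (not always all listed) in √10 steps.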

[2] = compound: C1=CC=C2C(=C1)N=C(S2)C(C#N)C3=NC(=NC=C3)NCCC4=CN=CC=C4 + CC(C)C[C@H](NC(=O)[C@H](Cc1ccccc1)NC(=O)c1cnccn1)B(O)O [Bortezomib] (partner 0.002 µM)
How it was run: as §1

[3] = compound: COc1cc(N2CCC(N3CCN(C)CC3)CC2)ccc1Nc1ncc(Cl)c(Nc2ccccc2S(=O)(=O)C(C)C)n1 [NVP-TAE684] + NC(=O)Nc1cc(-c2cccc(F)c2)sc1C(=O)N[C@H]1CCCNC1 [AZD7762] (partner 0.2 µM)
How it was run: as §1

[4] = compound: C#Cc1cccc(Nc2ncnc3cc(OC)c(OCCCCCCC(=O)NO)cc23)c1 [CUDC-101] + Cc1nc(Nc2ncc(C(=O)Nc3c(C)cccc3Cl)s2)cc(N2CCN(CCO)CC2)n1 [Dasatinib] (partner 0.075 µM)
How it was run: as §1

Cell Line	relative viability ([1]; first compound 0.01 µM)	relative viability ([1]; first compound 0.03162 µM)	relative viability ([1]; first compound 0.1 µM)	relative viability ([1]; first compound 0.3162 µM)	relative viability ([1]; first compound 1 µM)	relative viability ([2]; first compound 0.005 µM)	relative viability ([2]; first compound 0.01581 µM)	relative viability ([2]; first compound 0.05 µM)	relative viability ([2]; first compound 0.1581 µM)	relative viability ([2]; first compound 0.5 µM)	relative viability ([3]; first compound 0.2 µM)	relative viability ([3]; first compound 0.6325 µM)	relative viability ([3]; first compound 2 µM)	relative viability ([4]; first compound 0.01 µM)	relative viability ([4]; first compound 0.03162 µM)	relative viability ([4]; first compound 0.1 µM)	relative viability ([4]; first compound 0.3162 µM)	relative viability ([4]; first compound 1 µM)
NCI-H1437	0.676	0.649	0.642	0.605	0.537	0.475	0.569	0.848	0.652	0.429	1.21	1.09	1.07	0.384	0.364	0.457	0.432	0.402
EPLC-272H	0.885	0.703	0.596	0.448	0.365	0.772	0.777	0.958	1.03	0.738	0.175	0.175	0.208	0.448	0.364	0.316	0.357	0.183
HCC-15	0.684	0.726	0.652	0.665	0.499	0.835	1.02	1.15	1.13	0.835	1.11	1.36	0.806	0.641	0.622	0.628	0.672	0.473
NCI-H2347	0.677	0.681	0.626	0.686	0.479	1.12	1.07	–	1.13	0.962	0.723	0.613	0.628	0.308	0.323	0.261	0.337	0.346
NCI-H838	0.802	0.784	0.807	0.649	0.489	0.641	0.834	0.841	1.05	0.752	–	0.857	0.853	0.338	–	0.308	0.335	0.358
H3255	0.653	0.547	0.512	0.442	0.264	0.705	0.696	0.694	0.837	0.749	0.939	0.823	0.881	0.429	0.373	–	0.298	0.171
HCC-78	1.01	0.688	0.821	0.584	0.341	0.547	0.575	0.49	0.465	0.589	0.603	0.52	0.376	0.401	0.293	0.373	0.28	0.213
EMC-BAC-2	0.493	0.485	0.485	0.532	0.376	0.998	1.05	1.06	1.12	0.945	1.12	–	0.536	0.359	0.324	0.35	0.262	0.149
HCC-827	0.718	0.302	0.157	0.221	0.123	0.999	1.04	1.09	1.15	1.06	0.193	0.177	0.18	0.317	0.154	0.116	0.135	0.13
ChaGo-K-1	0.41	0.444	0.42	0.377	0.293	0.87	–	0.936	1.1	0.845	1.02	0.836	–	0.571	0.612	0.526	0.539	0.529
LXF-289	1.01	1.14	1.06	1.08	0.599	0.888	1.03	1.02	1.06	0.717	0.939	1.11	1.07	0.248	0.203	0.245	0.394	0.182
HOP-62	0.31	0.465	0.359	0.29	0.477	0.798	0.576	0.907	1.09	0.738	0.898	0.611	0.525	0.678	0.656	0.692	0.631	0.438
LCLC-103H	0.79	0.722	0.731	0.719	0.627	0.96	0.984	1.07	1.23	0.91	0.877	0.771	0.664	0.524	0.384	0.451	0.478	0.46
LOU-NH91	0.906	0.779	0.76	0.754	0.624	0.492	0.515	0.507	0.464	0.43	0.782	0.425	0.532	0.596	0.509	0.469	0.486	0.38
NCI-H1915	0.25	0.232	0.225	0.229	0.164	0.552	1.05	0.964	1.19	0.647	0.699	0.742	0.595	0.301	0.292	0.293	0.292	0.24
NCI-H1734	0.663	0.606	0.59	0.697	0.499	0.789	0.895	0.912	1.07	0.831	0.481	0.443	0.432	0.502	0.43	0.461	0.536	0.376
NCI-H2405	0.901	0.844	0.861	0.908	0.817	1.04	0.965	0.982	–	0.998	0.767	0.598	0.31	0.217	0.193	0.228	0.214	0.191
NCI-H2087	0.698	0.614	0.522	0.578	0.488	0.567	0.809	0.786	0.834	0.512	1.47	1.37	1.22	0.795	0.946	0.841	0.971	0.718

Cell Line	relative viability ([1]; first compound 0.01 µM)	relative viability ([1]; first compound 0.03162 µM)	relative viability ([1]; first compound 0.1 µM)	relative viability ([1]; first compound 0.3162 µM)	relative viability ([1]; first compound 1 µM)	relative viability ([2]; first compound 0.005 µM)	relative viability ([2]; first compound 0.01581 µM)	relative viability ([2]; first compound 0.05 µM)	relative viability ([2]; first compound 0.1581 µM)	relative viability ([2]; first compound 0.5 µM)	relative viability ([3]; first compound 0.2 µM)	relative viability ([3]; first compound 0.6325 µM)	relative viability ([3]; first compound 2 µM)	relative viability ([4]; first compound 0.01 µM)	relative viability ([4]; first compound 0.03162 µM)	relative viability ([4]; first compound 0.1 µM)	relative viability ([4]; first compound 0.3162 µM)	relative viability ([4]; first compound 1 µM)
NCI-H2085	0.766	0.806	0.721	0.813	0.676	0.861	1.05	0.781	1.24	0.94	0.991	0.953	0.797	0.205	0.274	0.221	0.196	0.215
NCI-H3122	0.61	0.647	0.625	0.598	0.558	0.877	1.05	0.958	1.05	1.07	0.22	0.184	0.127	0.82	0.867	0.798	0.783	0.454
NCI-H441	0.628	0.556	0.679	0.572	0.479	–	0.414	0.679	0.912	0.743	1.12	1.04	0.598	0.691	0.523	0.683	0.646	0.678
NCI-H596	0.616	0.597	0.718	0.689	0.67	0.72	0.969	0.938	1.43	1.16	1.03	0.988	0.839	0.666	0.603	0.601	0.604	0.588
PC-3 [JPC-3]	1.09	0.959	0.821	0.515	0.479	0.527	0.854	0.826	0.923	0.81	0.821	0.673	0.54	0.954	0.932	0.753	0.483	0.542
NCI-H1993	1.04	0.963	1.02	1.1	0.667	1.02	1.07	0.886	1.1	1.06	0.772	0.826	0.584	0.594	0.666	0.686	0.571	0.541
NCI-H1355	0.756	0.711	0.726	0.693	0.585	1.1	1.1	1.22	1.27	1.1	0.862	0.691	0.479	0.747	0.672	0.717	0.741	0.523
NCI-H23	0.271	0.373	0.323	0.302	0.248	–	0.917	1.01	1.37	0.92	0.24	0.209	0.151	0.777	0.795	0.826	0.856	0.733
CAL-12T	0.734	0.681	0.752	0.772	0.668	0.83	–	–	1.2	0.54	0.741	0.492	0.418	0.72	0.372	0.346	0.514	0.318
ABC-1	0.908	0.767	1.14	0.922	0.424	0.348	0.292	0.262	0.313	0.387	0.917	0.524	0.472	0.772	0.728	0.543	0.532	0.194
NCI-H1755	0.873	0.933	0.904	0.853	0.753	0.943	1.07	0.996	1.13	0.884	0.434	0.427	0.328	0.4	0.376	0.462	0.519	0.377
NCI-H2126	0.875	0.919	0.905	0.968	0.787	1.07	1.15	1.06	1.16	1.11	1.03	1.01	0.684	0.7	0.588	0.612	0.579	0.481
NCI-H650	0.393	0.377	0.337	0.299	0.185	0.482	0.528	0.748	1.22	0.778	1.03	0.848	0.853	0.486	0.482	0.495	0.436	0.337
201T	0.867	0.817	0.806	0.8	0.793	1.1	1.09	1.09	1.09	1.11	0.669	0.79	0.521	0.578	0.563	0.579	0.591	0.511
LU99A	0.259	0.24	0.233	0.192	0.105	1.08	1.14	1.1	1.27	1.43	0.342	0.402	0.265	0.596	0.508	0.507	0.64	0.432
NCI-H647	0.547	0.522	0.67	0.554	0.342	–	1.04	0.869	1.05	0.989	0.41	0.408	0.201	0.255	0.198	0.23	0.224	0.136
LC-2-ad	0.719	0.69	0.698	0.699	0.608	1	1.08	1.01	1.08	0.944	0.808	0.818	0.427	0.737	0.879	0.638	0.69	0.298
NCI-H1975	0.853	0.737	0.818	0.859	0.745	0.377	0.41	0.367	0.414	0.307	0.694	0.649	0.381	0.287	0.373	0.315	0.413	0.331
